Test results taken from patent US20190134047A1, “A MIXTURE OF D-SERINE AND CAFFEINE FOR OBTAINING THE EFFECT OF PREVENTING THE DECLINE OF LEARNING ABILITY OR MEMORY CAUSED BY STRESS AND ENHANCING LEARNING ABILITY OR MEMORY, AND A FUNCTIONAL FOOD COMPOSITION CONTAINING THE SAME” (ADVANCED NT, priority 2016, published 2019).

System: C57BL/6 male mouse
Test: Novel object recognition test with restraint stress
Assay type: in vivo
Settings: for preference for objects A and B on the fourth day (training day): abdominal injection 30 min before; for preference for objects A and B on the fourth day (training day) / preference for new object C on the fifth day after 24 hours: + restraint stress, mean±standard error; for preference for new object C on the fifth day after 24 hours: abdominal injection
Description: In all experiments, C57BL/6 male mouse, a kind of B6 mouse of 8-12 weeks old, were used. The experimental groups were divided into 7 experimental groups according to whether they were stressed or not and the type and weight of injected drugs as follows. […] Immediately after each behavioral experiment, restraint stress was applied by placing the mouse in a 50 mL tube pre-pierced with about 9 pores for 90 minutes. A mouse was placed in an open-field box (40 cm×40 cm×40 cm) made of acryl for 15 minutes every day for 3 days to fit and stabilize to the box. On the training day of the fourth day, two different objects made of acryl (objects A and B) were placed at regular intervals in the box and the mice were trained to freely search objects A and B for 10 minutes. […] The search time for each object (A and C or B and C) was quantified and the preference for the object was expressed as a ratio of search time (Preference (%)=C/(A+C)*100). […] To compare the results of the said two behavioral experiments, SPSS 21.0 (SPSS Inc, Chicago, Ill.) and Student's T-test and one-way ANOVA were used for statistical analysis.

[1] = D-serine 500 mg (second weight)

SMILES	preference for new object C, comparison among drug groups (D-Serine 50 mg + restraint stress as printed, 24-hour results, one-way ANOVA)	preference for objects A and B on the fourth day (training day) (D-serine 50 mg (first weight)) [%]	preference for new object C on the fifth day after 24 hours (D-serine 50 mg (first weight)) [%]	preference for objects A and B on the fourth day (training day) [1] [%]	preference for new object C on the fifth day after 24 hours [1] [%]	preference for objects A and B on the fourth day (training day) (Caffeine 10 mg) [%]	preference for new object C on the fifth day after 24 hours (Caffeine 10 mg) [%]
N[C@H](CO)C(=O)O [D-serine]	highest preference	52.12±2.81	63.63±3.94	47.83±3.97	67.55±3.46	–	–
Cn1c(=O)c2c(ncn2C)n(C)c1=O [caffeine]	–	–	–	–	–	49.92±2.75	62.06±2.27
